Laboratory results taken from patent US10194659B2, “Active compound combinations” (BAYER CROPSCIENCE AKTIENGESELLSCHAFT, priority 2014, dated 2019).
“And” between values parts separate entries of the source, which are not always exact repeats. Identical values can stand only once.

How the values were obtained:
Alternaria solani = assay: In vivo preventive test on Alternaria test (tomatoes); details: evaluated 3 days after inoculation
Experimental: (§1) To produce a suitable preparation of active compound, 1 part by weight of active compound is mixed with the stated amounts of solvent and emulsifier, and the concentrate is diluted with water to the desired concentration. To test for preventive activity, young plants are sprayed with the preparation of active compound at the stated rate of application. After the spray coating has dried on, the plants are inoculated with an aqueous spore suspension of Alternaria solani. The plants are then placed in an incubation cabinet at approximately 20° C. and a relative atmospheric humidity of 100%.
The test is evaluated 3 days after the inoculation. 0% means an efficacy which corresponds to that of the untreated control while an efficacy of 100% means that no disease is observed.

Botrytis cinerea = assay: In vivo preventive test on Botrytis test (beans); details: lesion size evaluated 2 days after inoculation
Experimental: To produce a suitable preparation of active compound, 1 part by weight of active compound is mixed with the stated amounts of solvent and emulsifier, and the concentrate is diluted with water to the desired concentration. To test for preventive activity, young plants are sprayed with the preparation of active compound. After the spray coating has dried on, 2 small pieces of agar covered with growth of Botrytis cinerea are placed on each leaf. The inoculated plants are placed in a darkened chamber at 20° C. and a relative atmospheric humidity of 100%.
2 days after the inoculation, the size of the lesions on the leaves is evaluated. 0% means an efficacy which corresponds to that of the untreated control, while an efficacy of 100% means that no disease is observed.

Phakopsora pachyrhizi = assay: In vivo preventive test on Phakopsora test (soybeans); details: evaluated 7 days after inoculation
Experimental: as §1, with “the causal agent of soybean rust (Phakopsora pachyrhizi) and stay for 24 h without light” for “Alternaria solani. The plants are then placed”, “24°” for “20°”, “95%. The plants remain in the incubation cabinet at approximately 24° C. and a relative atmospheric humidity of approximately 80% and a day/night interval of 12h.” for “100%.”
(§2) The test is evaluated 7 days after the inoculation. 0% means an efficacy which corresponds to that of the untreated control, while an efficacy of 100% means that no disease is observed.

Venturia inaequalis = assay: In vivo preventive test on Venturia test (apples); details: evaluated 10 days after inoculation
Experimental: as §1, with “conidia” for “spore”, “the causal agent of apple scab (Venturia inaequalis) and” for “Alternaria solani. The plants are”, “remain for 1 day” for “placed”, “100%. The plants are then placed in a greenhouse at approximately 21° C. and a relative atmospheric humidity of approximately 90%.” for “100%.”
The test is evaluated 10 days after the inoculation. 0% means an efficacy which corresponds to that of the untreated control, while an efficacy of 100% means that no disease is observed.

[1] = test system: Blumeria graminis f.sp. hordei; assay: In vivo preventive Blumeria test (barley); details: evaluated 7 days after inoculation
Experimental: To produce a suitable preparation of active compound, 1 part by weight of active compound or active compound combination is mixed with the stated amounts of solvent and emulsifier, and the concentrate is diluted with water to the desired concentration. To test for preventive activity, young plants are sprayed with the preparation of active compound or active compound combination at the stated rate of application. After the spray coating has been dried, the plants are dusted with spores of Blumeria graminis f.sp. hordei. The plants are placed in the greenhouse at a temperature of approximately 18° C. and a relative atmospheric humidity of approximately 80% to promote the development of mildew pustules.
as §2

Pyrenophora teres = assay: In vivo preventive Pyrenophora teres test (barley); details: evaluated 8 days after inoculation
Experimental: (§3) To produce a suitable preparation of active compound, 1 part by weight of active compound or active compound combination is mixed with the stated amounts of solvent and emulsifier, and the concentrate is diluted with water to the desired concentration. To test for preventive activity, young plants are sprayed with the preparation of active compound or active compound combination at the stated rate of application. After the spray coating has been dried, the plants are sprayed with a spore suspension of Pyrenophora teres. The plants remain for 48 hours in an incubation cabinet at approximately 20° C. and a relative atmospheric humidity of approximately 100%. The plants are placed in the greenhouse at a temperature of approximately 20° C. and a relative atmospheric humidity of approximately 80%.
(§4) The test is evaluated 8 days after the inoculation. 0% means an efficacy which corresponds to that of the untreated control, while an efficacy of 100% means that no disease is observed.

Septoria tritici = assay: In vivo preventive Septoria tritici test (wheat); details: evaluated 21 days after inoculation
Experimental: as §3, with “suspension of Septoria tritici. The plants” for “suspension of Pyrenophora teres. The plants”, “of approximately 100% and afterwards for 60 hours at approximately 15° C. in a translucent incubation cabinet at a relative atmospheric humidity of approximately 100%. The” for “of approximately 100%. The”, “of approximately 15° C. and” for “of approximately 20° C. and”
The test is evaluated 21 days after the inoculation. 0% means an efficacy which corresponds to that of the untreated control, while an efficacy of 100% means that no disease is observed.

Leptosphaeria nodorum = assay: In vivo preventive Leptosphaeria nodorum test (wheat); details: evaluated 8 days after inoculation
Experimental: as §3, with “suspension of Leptosphaeria nodorum. The plants” for “suspension of Pyrenophora teres. The plants”, “of approximately 25° C. and” for “of approximately 20° C. and”
as §4

Puccinia triticina = assay: In vivo preventive Puccinia triticina test (wheat); details: evaluated 8 days after inoculation
Experimental: as §3, with “Puccinia triticina.” for “Pyrenophora teres.”
as §4

Row | Compound | Efficacy in % found (Alternaria solani; 0.25 ppm a.i.) | Efficacy in % found (Alternaria solani; 0.5 ppm a.i.) [%] | Efficacy in % found (Alternaria solani; 1 ppm a.i.) | Efficacy in % found (Botrytis cinerea; 1 ppm a.i.) | Efficacy in % found (Phakopsora pachyrhizi; 0.25 ppm a.i.) | Efficacy in % found (Phakopsora pachyrhizi; 0.5 ppm a.i.) [%] | Efficacy in % found (Phakopsora pachyrhizi; 1 ppm a.i.) [%] | Efficacy in % found (Venturia inaequalis; 0.5 ppm a.i.) | Efficacy in % found (Botrytis cinerea; 0.25 ppm a.i.) [%] | Efficacy in % found (Botrytis cinerea; 0.5 ppm a.i.) [%] | Efficacy in % found (Pyrenophora teres; 25 ppm a.i.) [%] | Efficacy in % found (Pyrenophora teres; 50 ppm a.i.) [%] | Efficacy in % found (Venturia inaequalis; 1 ppm a.i.) [%] | further results
1 | Cn1cc(C(=O)Nc2ccccc2-c2cc(F)c(F)c(F)c2)c(C(F)F)n1 [1.008, fluxapyroxad, reference compound] | 15% and 8% | 45 | 55% and 78% | 8% and 0% | 9% and 0% | 0 | 0 | 8% and 10% | – | – | – | – | – | –
2 | CC1CC(C)(C)c2cccc(NC(=O)c3cn(C)nc3C(F)F)c21 (centres unmarked) [1.032, 3-(difluoromethyl)-1-methyl-N-(1,1,3-trimethyl-2,3-dihydro-1H-inden-4-yl)-1H-pyrazole-4-carboxamide, reference compound] | – | 0 | 15% and 8% | – | 0% | 0 | 0 | 0% | 18 | 0 | – | – | – | –
3 | CCC1CC(C)(C)c2cccc(NC(=O)c3cccnc3C(F)F)c21 (centres unmarked) [(I-3), 2-(difluoromethyl)-N-(3-ethyl-1,1-dimethyl-2,3-dihydro-1H-inden-4-yl)nicotinamide] | 15% | 45 | 45% | 0% | 24% | 71 | – | 11% | 0 | 4 | 13 | 38 | – | Efficacy in % found ([1]; 50 ppm a.i.): 29%; Efficacy in % found ([1]; 100 ppm a.i.): 57%; Efficacy in % found (Pyrenophora teres; 100 ppm a.i.): 50%; Efficacy in % found (Septoria tritici; 25 ppm a.i.): 17%; Efficacy in % found (Septoria tritici; 50 ppm a.i.): 83%
4 | CC[C@@H]1CC(C)(C)c2cccc(NC(=O)c3cccnc3C(F)F)c21 [(I-4), 2-(difluoromethyl)-N-[(3R)-3-ethyl-1,1-dimethyl-2,3-dihydro-1H-inden-4-yl]nicotinamide] | 23% | 30 | 55% | – | 35% | – | 87 | 12% | – | – | 22 | 33 | 21 | Efficacy in % found ([1]; 25 ppm a.i.): 0%; Efficacy in % found (Leptosphaeria nodorum; 25 ppm a.i.): 0%; Efficacy in % found (Puccinia triticina; 12.5 ppm a.i.): 80%; Efficacy in % found (Pyrenophora teres; 12.5 ppm a.i.): 22%
5 | CCCC1CC(C)(C)c2cccc(NC(=O)c3cccnc3C(F)F)c21 (centres unmarked) [(I-5), 2-(difluoromethyl)-N-(1,1-dimethyl-3-propyl-2,3-dihydro-1H-inden-4-yl)nicotinamide] | 0% | 8 | 15% | 0% | 78% | 84 | 85 | 0% | – | – | 0 | 0 | 15 | Efficacy in % found (Puccinia triticina; 25 ppm a.i.): 50%; Efficacy in % found (Pyrenophora teres; 100 ppm a.i.): 50%; Efficacy in % found (Venturia inaequalis; 0.25 ppm a.i.): 0%
6 | CCC[C@@H]1CC(C)(C)c2cccc(NC(=O)c3cccnc3C(F)F)c21 [(I-6), 2-(difluoromethyl)-N-[(3R)-1,1-dimethyl-3-propyl-2,3-dihydro-1H-inden-4-yl]nicotinamide] | 15% | 23 | 45% | – | – | 92 | – | 5% | 0 | 0 | – | – | 10 | Efficacy in % found ([1]; 50 ppm a.i.): 40%; Efficacy in % found (Puccinia triticina; 25 ppm a.i.): 90%; Efficacy in % found (Venturia inaequalis; 0.25 ppm a.i.): 0%
7 | fluopyram [1.006, reference compound] | – | – | – | – | – | – | – | – | – | – | – | 75 | – | Efficacy in % found ([1]; 100 ppm a.i.): 71%; Efficacy in % found (Leptosphaeria nodorum; 12.5 ppm a.i.): 14%; Efficacy in % found (Leptosphaeria nodorum; 25 ppm a.i.): 14%; Efficacy in % found (Puccinia triticina; 12.5 ppm a.i.): 0%; Efficacy in % found (Pyrenophora teres; 12.5 ppm a.i.): 33%; Efficacy in % found (Septoria tritici; 25 ppm a.i.): 17%
